In patent US5079260A, “Method for treating inflammation and compounds and compositions suitable for use therein” (Nova Pharmaceutical Corporation, priority 1990, dated 1992):
Counter-ions that a name gives are not always drawn.

These compounds were tested on Ear Edema Caused By Tetradecanoylphorbol Acetate (assay: Inhibition of Ear Edema Caused by Tetradecanoylphorbol Acetate (II), Table 7). Settings: i.p., 10 mg/kg; 3 h.
Format: in vivo, CF-1 Mice
Method: Inhibition of Ear Edema Caused by Tetradecanoylphorbol Acetate (II)
CF-1 Mice, 25-30 g body weight, six animals per group were used. Test compounds were administered intraperitoneally or topically as follows. For intraperitoneal administration, the test compound was dissolved in dimethyl sulfoxide or 0.5% methylcellulose and 100 microliters was injected 30 minutes prior to irritant (100 mg/kg, i.p.). […] A solution of the irritant, tetradecanoylphorbol acetate, 200 μg/mL, was added to the surface of the ear, 5 μL to the upper surface and 5 μL to the lower surface. After three hours, the thickness of the ear was measured to 0.01 mm by a micrometer with loose drag, positioned at the lateral-most edge of the mid-point of the pinna. Data were calculated as the inhibition of increased ear thickness compared to control animals receiving only the irritant.

SMILES | % Inhibition Intraperitoneal [%]
CC(C)C[C@H](NC(=O)CCC1c2ccccc2-c2ccccc21)C(=O)O [NPC 15672, N-{9H-[3-Fluorenyl-9)propionyl]}-L-leucine, sodium salt] | 54

Same assay, conditions: i.p., 30 mg/kg; 3 h

SMILES | % Inhibition Intraperitoneal [%]
CC(C)C[C@H](NC(=O)CCC1c2ccccc2-c2ccccc21)C(=O)O [NPC 15672, N-{9H-[3-Fluorenyl-9)propionyl]}-L-leucine, sodium salt] | 21

Same assay, conditions: i.p., 100 mg/kg; 3 h

SMILES | % Inhibition Intraperitoneal [%]
CC(C)C[C@H](NC(=O)CCC1c2ccccc2-c2ccccc21)C(=O)O [NPC 15476, N-[3-(9H-Fluoren-9-yl)propionyl]-L-leucine] | 64

Same assay, conditions: i.p., 100 mg/kg; 3 h; sodium salt

SMILES | % Inhibition Intraperitoneal [%]
CC(C)C[C@H](NC(=O)CCC1c2ccccc2-c2ccccc21)C(=O)O [NPC 15672, N-{9H-[3-Fluorenyl-9)propionyl]}-L-leucine, sodium salt] | 66

These compounds were tested on Ear Edema Caused by Arachidonic Acid (assay: Inhibition of Ear Edema Caused by Arachidonic Acid (II), Table 8). Settings: i.p., 100 mg/kg; sixty minutes.
Format: in vivo, CF-1 mice
Method: Inhibition of Ear Edema Caused by Arachidonic Acid (II)
CF-1 mice, 25-30 g body weight, six animals per group, were used. The requisite amount of the test compound was dissolved is dimethyl sulfoxide or 0.5% methylcellulose and 100 μL of the solution was injected intraperitoneally 30 minutes prior to the administration of 100 mg/kg of arachidponic acid. A solution of this irritant, b 100 mg/mL in ethanol, was applied to the surface of the ear, 5 μL to the upper surface and 5 μL to the lower surface. After sixty minutes, the thickness of the ear was measured to 0.01 mm by a micrometer with the loose drag positioned at the lateral-most edge of the mid-point of the pinna. Data were calculated as the percent inhibityion by the test compound of increased ear thickness compared to control animals recieveing only the irritant.

SMILES | % Inhibition Intraperitoneal [%]
COc1ccc2c(c1)c(CC(=O)O)c(C)n2C(=O)c1ccc(Cl)cc1 [Indomethacin, reference compound] | 1

The compounds below were run on Ear Edema Caused by Oxazolone (assay: Inhibition of Ear Edema Caused by Oxazolone (II), Table 10). Settings: i.p., 1 mg/kg; 24 h.
Format: in vivo, CF-1 mice
Method: Inhibition of Ear Edema Caused by Oxazolone (II)
CF-1 mice, 25-30 g body weight, five to six animals per group were used. The mice were sensitized to the irritant two weeks prior to the test by dribbling 100 μL of a 3% solution of oxazolone in acetone onto the abdominal skin of the animal. Test compounds were administered intraperitoneally as follows. […] The irritant, 3% oxazolone in acetone, was added to the surface of the ear, 5 μL added to the upper surface and 5 μL added to the lower surface. After twenty four hours, the thickness of the ear was measured to 0.01 mm by a micrometer with loose drag, positioned at the lateral-most edge of the mid-point of the pinna. Data were calculated as the inhibition of increased ear thickness compared to control animals' receiving only the irritant.

SMILES | % Inhibition Intraperitoneal [%]
COc1ccc2c(c1)c(CC(=O)O)c(C)n2C(=O)c1ccc(Cl)cc1 [Indomethacin, reference compound] | 4

Same assay, conditions: i.p., 3 mg/kg; 24 h

SMILES | % Inhibition Intraperitoneal [%]
COc1ccc2c(c1)c(CC(=O)O)c(C)n2C(=O)c1ccc(Cl)cc1 [Indomethacin, reference compound] | 35

Same assay, conditions: i.p., 10 mg/kg; 24 h

SMILES | % Inhibition Intraperitoneal [%]
CC(C)C[C@H](NC(=O)CCC1c2ccccc2-c2ccccc21)C(=O)O [NPC 15476, N-[3-(9H-Fluoren-9-yl)propionyl]-L-leucine] | 0

Same assay, conditions: i.p., 10 mg/kg; 24 h; sodium salt

SMILES | % Inhibition Intraperitoneal [%]
CC(C)C[C@H](NC(=O)CCC1c2ccccc2-c2ccccc21)C(=O)O [NPC 15672, N-{9H-[3-Fluorenyl-9)propionyl]}-L-leucine, sodium salt] | 11

Same assay, conditions: i.p., 30 mg/kg; 24 h

SMILES | % Inhibition Intraperitoneal [%]
CC(C)C[C@H](NC(=O)CCC1c2ccccc2-c2ccccc21)C(=O)O [NPC 15476, N-[3-(9H-Fluoren-9-yl)propionyl]-L-leucine] | 5

Same assay, conditions: i.p., 30 mg/kg; 24 h; sodium salt

SMILES | % Inhibition Intraperitoneal [%]
CC(C)C[C@H](NC(=O)CCC1c2ccccc2-c2ccccc21)C(=O)O [NPC 15672, N-{9H-[3-Fluorenyl-9)propionyl]}-L-leucine, sodium salt] | 19

Same assay, conditions: i.p., 100 mg/kg; 24 h

SMILES | % Inhibition Intraperitoneal [%]
CC(C)C[C@H](NC(=O)CCC1c2ccccc2-c2ccccc21)C(=O)O [NPC 15476, N-[3-(9H-Fluoren-9-yl)propionyl]-L-leucine] | 43

Same assay, conditions: i.p., 100 mg/kg; 24 h; sodium salt

SMILES | % Inhibition Intraperitoneal [%]
CC(C)C[C@H](NC(=O)CCC1c2ccccc2-c2ccccc21)C(=O)O [NPC 15672, N-{9H-[3-Fluorenyl-9)propionyl]}-L-leucine, sodium salt] | 35

These compounds were tested on Reverse Passive Artus Reaction (assay: Reverse Passive Artus Reaction (II), Table 11). Settings: inhibition of blueing; i.p., 1 mg/kg.
Format: in vivo, Male CD rats
Method: Reverse Passive Artus Reaction (II) Male CD rats weighing between 200 and 250 g were used. […] The animals were anesthetized inhalationally with isoflurane and then injected through the penile vein with 1 mL of a solution of 2.5 mg of Evan's blue dye and 5.0 mg of human serum albumin in 1 mL of saline. This treatment was followed immediately by intracutaneous injections of 0.03 mL of anti-human albumin diluted to contain 3.65 mg of antibody at 3 sites along the midline back. Anesthesia was terminated and after three hours, the animals were sacrificed. The skin was removed and the blue stained areas cut out. The skin patches were soaked overnight in stoppered tubes containing 1 mL of 1 N potassium hydroxide at 37° C. Then 9 mL of a mixture of five parts of a 0.6 N phosphoric acid and thirteen parts of acetone were added to the tubes. The tube contents were agitated and centrifuged, and the absorbance measured at 620 nm. The data were calculated as inhibition of blueing by test compound compared to control animals receiving only antigen and antibody.

SMILES | % Inhibition Intraperitoneal [%]
COc1ccc2c(c1)c(CC(=O)O)c(C)n2C(=O)c1ccc(Cl)cc1 [Indomethacin, reference compound] | 5

Same assay, conditions: inhibition of blueing; i.p., 3 mg/kg

SMILES | % Inhibition Intraperitoneal [%]
COc1ccc2c(c1)c(CC(=O)O)c(C)n2C(=O)c1ccc(Cl)cc1 [Indomethacin, reference compound] | 26

Same assay, conditions: inhibition of blueing; i.p., 10 mg/kg

SMILES | % Inhibition Intraperitoneal [%]
COc1ccc2c(c1)c(CC(=O)O)c(C)n2C(=O)c1ccc(Cl)cc1 [Indomethacin, reference compound] | 27

Same assay, conditions: inhibition of blueing; i.p., 100 mg/kg

SMILES | % Inhibition Intraperitoneal [%]
COC(=O)[C@H](CC(C)C)NC(=O)OCC1c2ccccc2-c2ccccc21 [NPC 15326, N-[(9H-Fluoren-9-ylmethoxy)carbonyl]-L-leucine methyl ester] | 19
CC(C)C[C@H](NC(=O)CCC1c2ccccc2-c2ccccc21)C(=O)O [NPC 15476, N-[3-(9H-Fluoren-9-yl)propionyl]-L-leucine] | 56
COc1ccc2c(c1)C(COC(=O)N[C@@H](CC(C)C)C(=O)O)c1ccccc1-2 (stereo partly drawn) [NPC 15489, N-[(2-Methoxyfluoren-9-ylmethoxy)carbonyl]-L-leucine] | 64
CC(C)CC(CO)NC(=O)OCC1c2ccccc2-c2ccccc21 (stereo not shown) [NPC 15427, 2-{N-[(9H-Fluoren-9-ylmethoxy)carbonyl]amino}-4-methylpentanol] | 14
CC(C)C[C@H](NC(=O)OCC1c2ccccc2-c2ccccc21)C(=O)OCC(O)CO (stereo partly shown) [NPC 15430] | 48

Same assay, conditions: inhibition of blueing; i.p., 100 mg/kg; sodium salt

SMILES | % Inhibition Intraperitoneal [%]
CC(C)C[C@H](NC(=O)CCC1c2ccccc2-c2ccccc21)C(=O)O [NPC 15672, N-{9H-[3-Fluorenyl-9)propionyl]}-L-leucine, sodium salt] | 34
